# Legend:
# [1] = Human plasma protein binding; format: in vitro ADME; settings: Table 1
# [2] = Mouse pharmacokinetics, plasma and brain exposure; format: in vivo, female BALB/c mice; settings: 10 mg/kg i.p., for 4 h
# HepG2 cells = assay: HepG2 toxicity assay; format: cell-based; settings: host cell toxicity
compound,measurement,setting,value
O=S(=O)(c1ccc(-c2ccc3nccc(Nc4ccc(OCc5cccc(F)c5)cc4)c3c2)cc1)N1CCOCC1 [Compound 3],protein binding (% free),[1],<0.03 % free
"O=S(=O)(c1ccc(-c2ccc3nccc(Nc4ccncn4)c3c2)cc1)N1CCOCC1 [Compound 13j, 6-(4-(morpholinosulfonyl)phenyl)-N-(pyrimidin-4-yl)quinolin-4-amine]",plasma exposure relative to the EC50,[2],> 120 fold
COc1ccc(Nc2ccnc3ccc(-c4ccc(S(=O)(=O)N5CCOCC5)cc4)cc23)cc1C [Compound 13k],HepG2 TC50,HepG2 cells,9.0 µM

# — publication PMC5346991 (ACS Medicinal Chemistry Letters, 2017)
